Measured values from patent publication US11787850B2, “Peptidic TGF-beta antagonists” (priority 2015, dated 2023).

Legend:
[1] = system: TGF-β1-induced Smad3-driven (CAGA12-lux) transcriptional activity; assay: Luciferase reporter assay in HEK293-(CAGA)12 cells; assay type: cell-based; details: 100 pM TGF-β1, 18 hours; for inhibition of TGF-β1-induced CAGA12-lux activity, peptide pre-treated with DMSO: 0.5% DMSO pre-treatment (FIG. 8); for inhibition of TGF-β1-induced CAGA12-lux activity, peptide in Tris buffer left untreated: no DMSO (FIG. 8)
Procedure: FIGS. 5A and 5B illustrate that some small molecular weight CD109-based peptides (Peptide A, P28, P21 and […]) inhibit TGF-β1-induced Smad3-driven transcriptional activity. […] Cell lysates were analyzed for luciferase activity and data are expressed as mean±standard deviation of relative light units (RLU). […] Under the conditions tested, peptide A, P28, P21 and P16 inhibited TGF-β1-induced transcriptional (CAGA12-lux) activity.
FIG. 6 illustrates that the small molecular weight CD109-based peptide P16 (but not P16-2, P11 or X-4) inhibit TGF-β1-induced Smad3-driven transcriptional activity. HEK293 cells stably transfected with the Smad3-responsive CAGA12-lux luciferase reporter were treated for 18 hours without (−) or with (+) […] TGF-β1 in the presence or absence of 10 nM of P16-2 (16 aa scrambled control), P11 (11 aa sequence), P16 (16 aa), X-4 (11 aa) or Tris-buffer (buffer control) as indicated. Cell lysates were analyzed for luciferase activity and data are expressed as mean±standard deviation of luciferase activity. Results are shown as luciferase activity for the peptides used.
FIG. 8 illustrates that DMSO treatment enhances the TGF-β inhibitory activity of Peptide X but not P21 or P16. HEK293 cells stably transfected with the Smad3-responsive CAGA12-lux luciferase reporter were treated for 18 hours without (−) or with (+) 100 pM TGF-β1 in the presence or absence of Peptide X (PX), P21 or P16. The peptides were previously dissolved in Tris buffer and left untreated or treated with DMSO prior to addition to the cells. Addition of Tris buffer or DMSO alone served as additional controls. Cell lysates were analyzed for luciferase activity and data are expressed as mean±standard deviation of luciferase activity. Results are shown as luciferase activity. […] P16 and P21 inhibited TGF-β1-induced CAGA12-lux activity and these effects were not enhanced by DMSO treatment. […]
FIG. 25 is a graph showing the ability of CD109-based peptides to inhibit TGF-β-induced, Smad3-driven transcriptional activity. HEK293 cells stably transfected with the Smad3-responsive CAGA12-lux luciferase reporter were treated for 18 hours without (−) or with (+) 100 pM TGF-b1 in the presence or absence of 10 nM of P16, P16.2, peptide A, P15, P14, P13, P12, P11, peptide X, P21, or 2% NH4OH buffer (buffer control) as indicated. Cell lysates were analyzed for luciferase activity and data are expressed as mean±standard deviation of luciferase activity.
HEK293 cells stably transfected with the Smad3-responsive CAGA12-lux luciferase reporter construct were incubated with dimeric or monomeric forms of peptide A as indicated and treated with 100 pM TGF-b overnight. Cell lysates were analyzed for luciferase activity. Data are presented as fold-activation compared to TGF-b1 treatment alone (scaled to 1.0). M+D, mixture of monomer and dimer.
Luciferase reporter assays were performed using a HEK293-(CAGA)12 cell line that stably expresses a TGF-β/Smad3-responsive (CAGA)12-luciferase reporter gene [Cash et al. 2013]. HEK293-(CAGA)12 cells were grown in 24-well plates to 70-80% confluency and serum-starved overnight. Cells were washed with PBS and treated with or without TGF-β1 in presence or absence of various CD109-based peptides as indicated in the figure legends. Cells were then washed twice with cold PBS and solubilized in 100 μl of Passive Lysis Buffer (Promega) for 30 min at 4° C. The cell lysates were assayed for luciferase and β-galactosidase activities using commercially available kits (BD Biosciences).
HEK293 cells stably transfected with the Smad3-responsive CAGA12-lux luciferase reporter were treated for 18 hours without (−) or with (+) 100 pM TGF-β1 in the presence or absence of 10 nM (FIG. 5A) or 5 nM (FIG. 5B) of peptide A (Pep A, 161 aa), P28 (28 aa peptide), P21 (21 aa peptide), P16 (16 aa peptide), P16.2 scrambled peptide (16 aa, scrambled P16 sequence) or Tris-buffer (negative control for peptides) as indicated. […]

[2] = Aggregation assay: Microcon 100 kDa filtration, Tricine SDS-PAGE, silver staining; assay type: physicochemical; details: for aggregation state (aggregated versus soluble fraction): 50 mM Tris-HCl pH 7.0, 2 hrs at 4° C., 100 kDa cut-off; for effect of DMSO treatment on aggregation: 0.5% DMSO for 2 hrs at 4° C.
Procedure: Peptide X (X, 40 amino acids) and P16 (16 amino acids) were left untreated (−) or treated with 0.5% DMSO (+) for 2 hrs at 4° C. The aggregated and non-aggregated soluble fractions were then separated using a Microcon™ centrifugal filtration device (Millipore), with a molecular weight cut-off of 100 kDa. This device allows passage of molecules <100 kDa through the filter but retains larger molecules (aggregates). The aggregated (FIG. 1A—left panel) and soluble (FIG. 1B—right panel) fractions were then separated by 17% Tricine-SDS gel electrophoresis and peptides detected by silver staining. In the conditions tested, multiple bands with various staining intensities were detected in peptide X aggregated fraction and two of these bands were decreased with DMSO treatment (A—left panel, arrows) leading to an increase in the amount of soluble peptide X (B—right panel, arrow, lane 2 versus 3). […] (A-B) Lane 1: Molecular weight marker. Lanes 2-5: samples.
Aggregation assay. Soluble peptides were separated from aggregates and precipitates by filtration. The molecular weight cut-off of the filter was chosen such that soluble protein was allowed to pass through the filter, while aggregate forms were retained. Peptide X and P16 previously dissolved in 50 mM Tris-HCl (pH=7.0) were left untreated or treated with 0.5% dimethyl sulfoxide (DMSO) for 2 hours at 4° C. Soluble protein was then separated from aggregated protein using a Microcon™ concentrator (Millipore), with a molecular weight cut-off of 100 kDa. The Microcon was spun in a desktop centrifuge at 16,000×g for 15 min. Aggregated protein retained on the membrane was resuspended in H2O, pipetting repeatedly across the membrane to ensure that as much protein as possible was removed. Aliquots of soluble protein and aggregated protein were each mixed with 5× sample buffer (250 mM Tris-HCl, 40% glycerol, 140 mM SDS, 0.6 M β-mercaptoethanol, pH 6.8) and heated to 85-90° C. for 10 min prior to Tricine SDS-PAGE. Samples were analyzed by 17% Tricine SDS-PAGE and peptides visualized by silver staining. Aggrescan Analysis
Peptide X (X, 40 amino acids) and P16 (16 amino acids) were left untreated (−) or treated with 0.5% DMSO (+) for 2 hrs at 4° C. The aggregated and non-aggregated (soluble) fractions were then separated using a Microcon centrifugal filtration device (Millipore), with a molecular weight cut-off of 100 kDa. This device allows passage of molecules less than 100 kDa through the filter but retains larger molecules (aggregates). The aggregated and soluble fractions were then separated by 17% Tricine-SDS gel electrophoresis and peptides visualized by silver staining.

Row | Sequence | inhibition of TGF-β1-induced CAGA12-lux activity, peptide pre-treated with DMSO [1] | inhibition of TGF-β1-induced CAGA12-lux activity, peptide in Tris buffer left untreated [1] | aggregation state (aggregated versus soluble fraction) [2] | effect of DMSO treatment on aggregation [2]
1 | ETWIWLDTNMGSRIYQ [Peptide P16] | not enhanced | inhibited | aggregated only to a minor extent | not altered by DMSO treatment
2 | LGSSPHVRKHFPETWIWLDTNMGSRIYQEFEVTVPDSITS (Peptide X) | inhibited | did not | existed predominantly in aggregated form | partially decreased
